± gives the expanded uncertainty stated by the source.

By mass density is commonly meant mass per unit of volume.

For the first series the following is noted: 298.15 K; 100 kPa; Liquid.
For `ClCCCl` [1,2-dichloroethane], the mass density is 1245.5 ± 0.6 kg/m3. On the same count and under the same terms, the figure for `ClCCCCCl` [1,4-dichlorobutane] is 1133.7 ± 3.4 kg/m3; for `ClCCCCCCCl` [1,6-dichlorohexane] it is 1063.8 ± 1.4 kg/m3; for `CCCCCl` [1-chlorobutane] it is 880.6 ± 0.3 kg/m3. On the same count and under the same terms, next, `CCCCCCCl` [1-chlorohexane]: 873.1 ± 0.6 kg/m3; `CCCCCCCCCl` [1-chlorooctane]: 868.8 ± 1.3 kg/m3.

The series is the same for the next values; noted with them: 298.15 K; 10000 kPa; Liquid.
As to `ClCCCl` [1,2-dichloroethane], the mass density is 1255.1 ± 1 kg/m3.
